Calls of active or inactive are those of the source. How the calls were made is not given here.
Tests used:
Assay type in all cases: functional
Activated CDC42 kinase 1 = Activated CDC42 kinase 1 (Homo sapiens, UniProt Q07912); test: Navigating the Kinome. Panel member name: ACK1
[1] = biological target: T1, Serine/threonine-protein kinase D3 (Homo sapiens, UniProt O94806);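 further: determined within a kinase panel screen, with PRKCN as the panel member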
T1 sequence (O94806 whole entry): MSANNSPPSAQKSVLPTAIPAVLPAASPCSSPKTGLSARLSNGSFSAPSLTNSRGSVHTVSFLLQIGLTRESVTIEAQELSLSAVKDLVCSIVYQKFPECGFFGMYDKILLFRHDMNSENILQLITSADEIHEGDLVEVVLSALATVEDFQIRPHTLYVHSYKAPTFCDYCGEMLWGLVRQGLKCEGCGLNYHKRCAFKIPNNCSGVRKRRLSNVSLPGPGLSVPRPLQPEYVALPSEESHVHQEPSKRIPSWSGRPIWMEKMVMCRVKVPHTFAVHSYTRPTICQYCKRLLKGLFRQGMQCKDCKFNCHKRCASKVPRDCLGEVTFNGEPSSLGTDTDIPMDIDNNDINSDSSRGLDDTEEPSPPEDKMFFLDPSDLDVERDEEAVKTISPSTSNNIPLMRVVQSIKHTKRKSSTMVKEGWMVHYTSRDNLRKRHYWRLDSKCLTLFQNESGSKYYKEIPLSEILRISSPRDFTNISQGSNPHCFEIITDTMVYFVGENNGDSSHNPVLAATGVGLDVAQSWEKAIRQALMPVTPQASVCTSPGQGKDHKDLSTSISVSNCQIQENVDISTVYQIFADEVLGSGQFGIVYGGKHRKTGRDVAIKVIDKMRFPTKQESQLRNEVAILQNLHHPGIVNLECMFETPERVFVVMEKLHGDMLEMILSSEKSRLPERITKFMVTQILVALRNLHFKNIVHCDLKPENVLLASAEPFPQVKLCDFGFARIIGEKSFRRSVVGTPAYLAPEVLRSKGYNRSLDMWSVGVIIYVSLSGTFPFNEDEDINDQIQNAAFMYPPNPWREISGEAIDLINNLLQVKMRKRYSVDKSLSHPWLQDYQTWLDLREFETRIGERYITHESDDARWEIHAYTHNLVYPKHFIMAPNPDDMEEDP

[2] = biological target: Serine/threonine-protein kinase PAK 4 (Homo sapiens, UniProt O96013);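 further: value obtained within a kinome profiling panel in which PAK4 was one of the panel members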
Sequence of Serine/threonine-protein kinase PAK 4 (O96013 whole entry): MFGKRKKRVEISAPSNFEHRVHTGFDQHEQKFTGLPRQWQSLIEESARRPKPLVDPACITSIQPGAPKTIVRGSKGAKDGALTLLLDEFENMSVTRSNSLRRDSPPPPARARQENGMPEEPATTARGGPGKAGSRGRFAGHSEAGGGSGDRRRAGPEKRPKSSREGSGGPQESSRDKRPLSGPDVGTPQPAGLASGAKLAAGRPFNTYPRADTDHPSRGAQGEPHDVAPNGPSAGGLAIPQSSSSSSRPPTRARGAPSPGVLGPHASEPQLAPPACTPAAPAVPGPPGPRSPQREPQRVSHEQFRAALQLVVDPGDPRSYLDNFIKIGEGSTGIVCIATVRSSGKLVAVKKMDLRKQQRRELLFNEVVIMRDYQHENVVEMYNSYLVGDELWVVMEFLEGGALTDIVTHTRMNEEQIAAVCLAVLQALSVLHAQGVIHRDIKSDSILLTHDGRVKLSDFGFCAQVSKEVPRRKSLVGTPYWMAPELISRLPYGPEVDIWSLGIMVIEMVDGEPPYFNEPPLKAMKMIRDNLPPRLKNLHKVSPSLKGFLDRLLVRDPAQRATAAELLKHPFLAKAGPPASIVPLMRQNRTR

[3] = biological target: Mitogen-activated protein kinase 9 (Homo sapiens, UniProt P45984);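 further: value from a kinome panel profiling assay, MAPK9 panel entry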
Sequence of Mitogen-activated protein kinase 9 (P45984 whole entry): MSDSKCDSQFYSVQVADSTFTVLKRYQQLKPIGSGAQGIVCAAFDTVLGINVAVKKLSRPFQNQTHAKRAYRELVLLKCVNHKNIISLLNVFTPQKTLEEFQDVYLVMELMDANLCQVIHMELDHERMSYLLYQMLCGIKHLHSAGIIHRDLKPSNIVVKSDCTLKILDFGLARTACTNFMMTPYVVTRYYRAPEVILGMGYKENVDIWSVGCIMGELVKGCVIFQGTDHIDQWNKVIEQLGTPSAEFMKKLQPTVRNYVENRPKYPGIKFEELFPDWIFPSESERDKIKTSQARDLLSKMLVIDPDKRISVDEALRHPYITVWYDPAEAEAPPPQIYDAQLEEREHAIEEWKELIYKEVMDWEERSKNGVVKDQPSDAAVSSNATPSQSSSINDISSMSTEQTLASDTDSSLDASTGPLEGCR

[4] = biological target: Dual specificity protein kinase CLK2 (Homo sapiens, UniProt P49760)
Sequence of Dual specificity protein kinase CLK2 (P49760 whole entry): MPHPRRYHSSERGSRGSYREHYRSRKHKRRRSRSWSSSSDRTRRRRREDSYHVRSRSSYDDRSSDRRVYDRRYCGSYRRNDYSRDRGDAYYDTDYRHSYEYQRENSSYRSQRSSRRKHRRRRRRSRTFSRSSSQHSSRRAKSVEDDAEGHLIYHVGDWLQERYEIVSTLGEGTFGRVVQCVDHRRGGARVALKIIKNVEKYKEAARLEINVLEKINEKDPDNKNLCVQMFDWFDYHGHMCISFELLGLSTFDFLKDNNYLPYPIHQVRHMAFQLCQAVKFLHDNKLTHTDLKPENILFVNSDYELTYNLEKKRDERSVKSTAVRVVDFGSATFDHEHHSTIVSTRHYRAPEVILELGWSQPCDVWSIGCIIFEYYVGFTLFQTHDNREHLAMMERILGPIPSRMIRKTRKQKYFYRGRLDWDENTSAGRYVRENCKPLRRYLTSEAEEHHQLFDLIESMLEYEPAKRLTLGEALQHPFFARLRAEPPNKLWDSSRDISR

[5] = biological target: Tyrosine-protein kinase Fyn (Homo sapiens, UniProt P06241)
[6] = biological target: T2, cAMP-dependent protein kinase catalytic subunit PRKX (Homo sapiens, UniProt P51817)
T2 sequence (P51817 whole entry): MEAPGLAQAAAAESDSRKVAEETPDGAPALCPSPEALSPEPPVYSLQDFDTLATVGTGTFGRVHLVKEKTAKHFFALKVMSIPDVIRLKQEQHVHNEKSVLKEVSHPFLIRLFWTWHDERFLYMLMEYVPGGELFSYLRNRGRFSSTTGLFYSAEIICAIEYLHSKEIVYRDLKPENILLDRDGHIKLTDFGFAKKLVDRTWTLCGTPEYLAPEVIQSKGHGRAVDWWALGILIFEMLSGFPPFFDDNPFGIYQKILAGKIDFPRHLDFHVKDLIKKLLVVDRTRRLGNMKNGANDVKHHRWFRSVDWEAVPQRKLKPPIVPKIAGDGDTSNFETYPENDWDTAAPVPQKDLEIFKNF

Aurora kinase B = Aurora kinase B (Homo sapiens, UniProt Q96GD4)
Sequence of Aurora kinase B (Q96GD4 whole entry): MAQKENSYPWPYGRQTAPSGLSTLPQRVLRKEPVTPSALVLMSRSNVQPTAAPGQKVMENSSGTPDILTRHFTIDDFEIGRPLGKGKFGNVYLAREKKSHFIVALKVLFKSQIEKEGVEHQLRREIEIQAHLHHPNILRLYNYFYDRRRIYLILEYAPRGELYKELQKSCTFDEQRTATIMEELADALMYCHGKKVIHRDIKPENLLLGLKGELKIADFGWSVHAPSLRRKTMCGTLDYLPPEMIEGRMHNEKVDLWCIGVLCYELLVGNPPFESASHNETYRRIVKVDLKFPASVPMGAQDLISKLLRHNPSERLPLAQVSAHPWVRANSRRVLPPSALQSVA

[7] = biological target: Death-associated protein kinase 3 (Homo sapiens, UniProt O43293);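 further: measured as one member of a kinome-wide profiling panel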
Sequence of Death-associated protein kinase 3 (O43293 whole entry): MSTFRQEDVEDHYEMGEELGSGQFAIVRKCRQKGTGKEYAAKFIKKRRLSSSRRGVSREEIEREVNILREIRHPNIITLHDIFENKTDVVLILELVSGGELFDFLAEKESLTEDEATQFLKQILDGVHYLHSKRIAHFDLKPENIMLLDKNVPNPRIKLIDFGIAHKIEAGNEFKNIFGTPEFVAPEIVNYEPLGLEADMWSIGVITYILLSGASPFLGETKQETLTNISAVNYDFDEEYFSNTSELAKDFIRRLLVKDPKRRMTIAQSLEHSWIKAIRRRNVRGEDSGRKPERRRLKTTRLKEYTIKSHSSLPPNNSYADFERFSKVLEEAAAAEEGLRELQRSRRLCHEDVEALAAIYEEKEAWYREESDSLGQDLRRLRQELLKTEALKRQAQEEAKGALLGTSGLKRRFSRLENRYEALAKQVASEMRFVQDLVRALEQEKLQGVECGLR

[8] = biological target: T3, Receptor-type tyrosine-protein kinase FLT3 (Homo sapiens, UniProt P36888);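 further: FLT3 was tested as one member of a kinome-wide kinase panel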
T3 sequence (P36888 whole entry): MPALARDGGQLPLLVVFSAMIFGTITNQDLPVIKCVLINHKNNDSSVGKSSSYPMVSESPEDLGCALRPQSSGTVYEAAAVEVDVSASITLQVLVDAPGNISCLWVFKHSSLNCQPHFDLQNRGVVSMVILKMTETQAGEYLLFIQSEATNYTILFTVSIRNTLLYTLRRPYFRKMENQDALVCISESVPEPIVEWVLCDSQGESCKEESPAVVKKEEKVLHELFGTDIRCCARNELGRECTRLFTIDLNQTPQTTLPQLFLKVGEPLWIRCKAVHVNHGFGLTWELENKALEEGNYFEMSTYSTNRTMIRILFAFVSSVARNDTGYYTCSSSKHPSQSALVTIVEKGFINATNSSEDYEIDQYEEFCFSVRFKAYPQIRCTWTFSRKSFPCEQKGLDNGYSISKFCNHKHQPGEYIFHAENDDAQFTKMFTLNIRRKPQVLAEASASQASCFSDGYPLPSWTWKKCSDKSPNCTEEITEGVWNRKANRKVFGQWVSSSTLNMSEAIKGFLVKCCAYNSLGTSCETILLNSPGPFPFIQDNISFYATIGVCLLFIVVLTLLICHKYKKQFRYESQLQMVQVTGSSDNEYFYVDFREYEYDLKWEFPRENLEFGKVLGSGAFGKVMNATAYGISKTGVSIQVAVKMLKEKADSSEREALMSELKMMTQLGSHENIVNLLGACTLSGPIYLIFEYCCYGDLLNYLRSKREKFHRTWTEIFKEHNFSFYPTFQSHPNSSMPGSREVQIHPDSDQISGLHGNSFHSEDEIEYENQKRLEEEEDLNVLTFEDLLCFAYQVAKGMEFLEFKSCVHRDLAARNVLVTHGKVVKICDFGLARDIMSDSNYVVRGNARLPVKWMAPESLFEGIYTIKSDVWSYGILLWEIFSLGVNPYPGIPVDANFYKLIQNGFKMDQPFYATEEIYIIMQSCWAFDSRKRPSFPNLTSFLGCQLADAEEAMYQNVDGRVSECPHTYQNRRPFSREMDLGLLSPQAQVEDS

[9] = biological target: Tyrosine-protein kinase ABL1 (Homo sapiens, UniProt P00519)
Sequence of Tyrosine-protein kinase ABL1 (P00519 whole entry): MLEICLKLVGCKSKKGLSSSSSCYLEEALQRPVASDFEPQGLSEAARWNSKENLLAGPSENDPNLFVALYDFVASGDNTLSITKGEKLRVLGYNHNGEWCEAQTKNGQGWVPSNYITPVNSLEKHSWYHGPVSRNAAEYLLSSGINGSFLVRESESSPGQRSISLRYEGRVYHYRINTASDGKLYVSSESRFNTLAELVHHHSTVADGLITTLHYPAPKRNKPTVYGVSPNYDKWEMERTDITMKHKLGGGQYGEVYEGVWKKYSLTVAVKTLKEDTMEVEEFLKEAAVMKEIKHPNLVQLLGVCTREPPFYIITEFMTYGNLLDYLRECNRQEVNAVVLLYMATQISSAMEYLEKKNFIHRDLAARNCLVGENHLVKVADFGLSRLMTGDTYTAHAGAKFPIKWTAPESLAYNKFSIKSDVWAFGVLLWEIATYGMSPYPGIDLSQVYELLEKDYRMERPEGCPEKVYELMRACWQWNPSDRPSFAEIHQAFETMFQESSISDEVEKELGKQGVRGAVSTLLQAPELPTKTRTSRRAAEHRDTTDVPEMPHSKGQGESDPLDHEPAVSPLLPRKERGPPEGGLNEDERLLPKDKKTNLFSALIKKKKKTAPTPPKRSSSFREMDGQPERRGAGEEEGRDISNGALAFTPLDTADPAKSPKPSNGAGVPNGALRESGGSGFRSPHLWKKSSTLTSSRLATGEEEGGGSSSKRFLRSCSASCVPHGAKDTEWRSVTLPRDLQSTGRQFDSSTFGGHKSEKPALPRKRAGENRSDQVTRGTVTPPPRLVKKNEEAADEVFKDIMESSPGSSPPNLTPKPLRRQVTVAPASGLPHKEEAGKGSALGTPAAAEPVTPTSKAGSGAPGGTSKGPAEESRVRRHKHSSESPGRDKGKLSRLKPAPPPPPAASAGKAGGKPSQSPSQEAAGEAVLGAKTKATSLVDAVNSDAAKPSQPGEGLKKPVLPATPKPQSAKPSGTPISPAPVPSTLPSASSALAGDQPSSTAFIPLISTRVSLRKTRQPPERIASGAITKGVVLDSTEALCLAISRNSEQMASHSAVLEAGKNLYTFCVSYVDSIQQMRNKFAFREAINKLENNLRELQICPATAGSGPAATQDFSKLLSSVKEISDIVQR

[10] = biological target: 5'-AMP-activated protein kinase catalytic subunit alpha-1 (Homo sapiens, UniProt Q13131)
Sequence of 5'-AMP-activated protein kinase catalytic subunit alpha-1 (Q13131 whole entry): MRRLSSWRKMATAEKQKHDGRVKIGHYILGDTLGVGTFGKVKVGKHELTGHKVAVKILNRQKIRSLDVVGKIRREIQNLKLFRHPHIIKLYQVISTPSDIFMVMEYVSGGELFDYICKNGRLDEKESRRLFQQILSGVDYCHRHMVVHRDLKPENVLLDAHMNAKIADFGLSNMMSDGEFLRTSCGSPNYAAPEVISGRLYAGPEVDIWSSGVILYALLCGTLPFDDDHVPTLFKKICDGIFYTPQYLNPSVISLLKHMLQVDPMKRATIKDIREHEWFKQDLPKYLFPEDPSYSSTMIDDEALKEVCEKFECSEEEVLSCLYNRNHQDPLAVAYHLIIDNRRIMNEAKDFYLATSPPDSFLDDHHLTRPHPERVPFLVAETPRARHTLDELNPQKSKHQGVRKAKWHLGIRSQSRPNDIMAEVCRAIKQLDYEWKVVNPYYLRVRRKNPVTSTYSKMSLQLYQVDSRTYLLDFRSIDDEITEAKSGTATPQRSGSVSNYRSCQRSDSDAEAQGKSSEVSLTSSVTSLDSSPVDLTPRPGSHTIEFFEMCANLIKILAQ

Sequence of Activated CDC42 kinase 1 (Q07912 whole entry): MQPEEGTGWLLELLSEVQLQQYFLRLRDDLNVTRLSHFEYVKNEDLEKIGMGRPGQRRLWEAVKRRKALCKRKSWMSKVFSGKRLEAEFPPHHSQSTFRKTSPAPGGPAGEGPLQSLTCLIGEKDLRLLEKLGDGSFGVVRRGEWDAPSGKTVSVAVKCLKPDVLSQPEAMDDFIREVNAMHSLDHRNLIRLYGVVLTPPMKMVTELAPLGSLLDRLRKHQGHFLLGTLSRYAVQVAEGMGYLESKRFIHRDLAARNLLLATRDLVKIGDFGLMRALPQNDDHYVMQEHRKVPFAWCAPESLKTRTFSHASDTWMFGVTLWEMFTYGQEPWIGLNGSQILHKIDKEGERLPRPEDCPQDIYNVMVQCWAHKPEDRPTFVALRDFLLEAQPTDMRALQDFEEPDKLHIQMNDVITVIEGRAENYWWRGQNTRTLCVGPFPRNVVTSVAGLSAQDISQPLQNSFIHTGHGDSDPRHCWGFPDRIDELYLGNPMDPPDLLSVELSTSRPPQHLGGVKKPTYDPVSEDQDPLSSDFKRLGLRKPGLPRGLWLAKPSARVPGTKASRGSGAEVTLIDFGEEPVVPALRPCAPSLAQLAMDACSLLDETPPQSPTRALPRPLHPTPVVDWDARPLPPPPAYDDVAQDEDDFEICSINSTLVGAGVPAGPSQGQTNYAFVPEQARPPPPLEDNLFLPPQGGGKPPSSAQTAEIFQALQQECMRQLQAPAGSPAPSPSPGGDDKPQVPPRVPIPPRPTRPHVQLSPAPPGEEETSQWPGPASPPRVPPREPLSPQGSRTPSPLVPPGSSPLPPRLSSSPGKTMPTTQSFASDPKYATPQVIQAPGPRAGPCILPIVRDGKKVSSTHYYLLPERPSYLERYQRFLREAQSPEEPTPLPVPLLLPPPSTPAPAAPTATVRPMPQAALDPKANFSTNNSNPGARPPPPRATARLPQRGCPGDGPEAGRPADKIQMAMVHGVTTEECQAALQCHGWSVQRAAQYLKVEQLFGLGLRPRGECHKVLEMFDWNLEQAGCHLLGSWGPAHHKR

Compound | Ki (Activated CDC42 kinase 1) | Ki [1] | Ki [2] | Ki [3] | Ki [4] | Ki [5] | Ki [6] | Ki (Aurora kinase B) | Ki [7] | Ki [8] | Ki [9] | Ki [10] | further results
NC1CCC(Nc2nc(Cl)cc(-c3c[nH]c4ncccc34)n2)CC1 (stereo not given) | 2000 nM (active) | 5.01 nM (active) | 39.8 nM (active) | 3160 nM (active) | 7.94 nM (active) | > 6310 nM (inactive) | 3.16 nM (active) | 251 nM (active) | 50.1 nM (active) | 6.31 nM (active) | 1580 nM (active) | 39.8 nM (active) | pKi (Activated CDC42 kinase 1): 5.7; pKi [1]: 8.3; pKi [2]: 7.4; pKi [3]: 5.5; pKi [4]: 8.1; pKi [6]: 8.5; pKi (Aurora kinase B): 6.6; pKi [7]: 7.3; pKi [8]: 8.2; pKi [9]: 5.8; pKi [10]: 7.4
O=C(O)C1CN(Cc2ccc(OCc3ccccc3)cc2Cl)C1 | > 3980 nM (inactive) | > 3980 nM (inactive) | > 5010 nM (inactive) | > 3980 nM (inactive) | > 3980 nM (inactive) | > 6310 nM (inactive) | 1260 nM (active) | > 3980 nM (inactive) | > 5010 nM (inactive) | > 3160 nM (inactive) | > 2510 nM (inactive) | > 3160 nM (inactive) | –
